The test system of assay [1] is MCF-7 breast cancer cells. As to the kind of experiment: In vitro anti-proliferative activity, MTT assay. The format is cell-based. The note with it: Homo sapiens, MCF7, read-out: In vitro anti-proliferative activities MCF-7 IC50.
Assay [2] concerns HCT-116, HepG-2 and MCF-7 cells. It counts as cell-based. Particulars: Homo sapiens, read-out: IC50 values against the three cell lines (range).

In the case of `COc1cc(-c2ccc(-c3nnc(SC)o3)c(C)n2)cc(OC)c1OC` [VIIIa, 2-[2-Methyl-6-(3,4,5-trimethoxyphenyl)pyridin-3-yl]-5-(methylthio)-1,3,4-oxadiazole], the values for the IC50 in assay [1] and in assay [2] were 18.2 ± 0.55 µM and 10.8 to 31.5 µM, respectively.

Turning to `CCSc1nnc(-c2ccc(-c3cc(OC)c(OC)c(OC)c3)nc2C)o1` [VIIIb, 2-(Ethylthio)-5-[2-methyl-6-(3,4,5-trimethoxyphenyl)pyridin-3-yl]-1,3,4-oxadiazole], the IC50 in assay [1] turned out to be 14.8 ± 0.37 µM.

Turning to `COc1cc(-c2ccc(-c3nnc(SCCCBr)o3)c(C)n2)cc(OC)c1OC` [VIIIc, 2-[(3-Bromopropyl)thio]-5-[2-methyl-6-(3,4,5-trimethoxyphenyl)pyridin-3-yl]-1,3,4-oxadiazole], the values for the IC50 in assay [1] and in assay [2] were 25.2 ± 0.64 µM and 10.8 to 31.5 µM, respectively.

For `CCCCCCSc1nnc(-c2ccc(-c3cc(OC)c(OC)c(OC)c3)nc2C)o1` [VIIId, 2-(Hexylthio)-5-[2-methyl-6-(3,4,5-trimethoxyphenyl)pyridin-3-yl]-1,3,4-oxadiazole], the IC50 in assay [1] is 27.2 ± 0.68 µM; in assay [2], 10.8 to 31.5 µM.

In the case of `COc1cc(-c2ccc(-c3nnc(SCC4CCCCC4)o3)c(C)n2)cc(OC)c1OC` [VIIIe, 2-[(Cyclohexylmethyl)thio]-5-[2-methyl-6-(3,4,5-trimethoxyphenyl)pyridin-3-yl]-1,3,4-oxadiazole], the IC50 was 21.4 ± 0.45 µM in assay [1] and 10.8 to 31.5 µM in assay [2].

Turning to `COc1cc(-c2ccc(C(=O)N/N=C/c3ccc(O)cc3)c(C)n2)cc(OC)c1OC` [Va, (E)-N′-(4-Hydroxybenzylidene)-2-methyl-6-(3,4,5-trimethoxyphenyl)nicotinohydrazide], the IC50 is 21.5 ± 0.67 µM in assay [1] and 10.8 to 31.5 µM in assay [2].

On to `COc1ccccc1/C=N/NC(=O)c1ccc(-c2cc(OC)c(OC)c(OC)c2)nc1C` [Vb, (E)-N′-(2-Methoxybenzylidene)-2-methyl-6-(3,4,5-trimethoxyphenyl)nicotinohydrazide], for which the IC50 in assay [1] is 8.5 ± 0.24 µM; in assay [2], 3.25 to 9.15 µM.

On to `COc1ccc(/C=N/NC(=O)c2ccc(-c3cc(OC)c(OC)c(OC)c3)nc2C)cc1OC` [Vc, (E)-N′-(3,4-Dimethoxybenzylidene)-2-methyl-6-(3,4,5-trimethoxyphenyl)nicotinohydrazide], for which the figures for the IC50 in assay [1] and in assay [2] were 9.15 ± 0.31 µM and 3.25 to 9.15 µM, respectively.

For `COc1cc(OC)c(/C=N/NC(=O)c2ccc(-c3cc(OC)c(OC)c(OC)c3)nc2C)c(OC)c1` [Vd, (E)-2-Methyl-N′-(2,4,6-trimethoxybenzylidene)-6-(3,4,5-trimethoxyphenyl)nicotinohydrazide], the figures for the IC50 in assay [1] and in assay [2] were 15.8 ± 0.46 µM and 10.8 to 31.5 µM, respectively.

As for `CCOc1ccc(/C=N/NC(=O)c2ccc(-c3cc(OC)c(OC)c(OC)c3)nc2C)cc1` [Ve, (E)-N′-(4-Ethoxybenzylidene)-2-methyl-6-(3,4,5-trimethoxyphenyl)nicotinohydrazide], the IC50 in assay [1] was 46.6 ± 0.95 µM.

Consider `COc1cc(-c2ccc(C(=O)N/N=C/c3cc(C)ccc3C)c(C)n2)cc(OC)c1OC` [Vf, (E)-N′-(2,5-Dimethylbenzylidene)-2-methyl-6-(3,4,5-trimethoxyphenyl)nicotinohydrazide], for which the values for the IC50 in assay [1] and in assay [2] were 6.32 ± 0.14 µM and 3.25 to 9.15 µM, respectively.

As to `COc1cc(-c2ccc(C(=O)N/N=C/c3ccc(Cl)cc3)c(C)n2)cc(OC)c1OC` [Vg, (E)-N′-(4-Chlorobenzylidene)-2-methyl-6-(3,4,5-trimethoxyphenyl)nicotinohydrazide], the IC50 in assay [1] was 31.5 ± 0.7 µM; in assay [2] it was 10.8 to 31.5 µM.

Take `COc1cc(-c2ccc(C(=O)N/N=C/c3cc(Cl)ccc3Cl)c(C)n2)cc(OC)c1OC` [Vh, (E)-N′-(2,5-Dichlorobenzylidene)-2-methyl-6-(3,4,5-trimethoxyphenyl)nicotinohydrazide]: the IC50 in assay [1] is 30.1 ± 0.75 µM; in assay [2], 10.8 to 31.5 µM.

Regarding `COc1cc(-c2ccc(C(=O)N/N=C/c3ccc([N+](=O)[O-])cc3)c(C)n2)cc(OC)c1OC` [Vj, (E)-2-Methyl-N′-(4-nitrobenzylidene)-6-(3,4,5-trimethoxyphenyl)nicotinohydrazide], the half-inhibitory concentration (IC50) was 4.82 ± 0.05 µM in assay [1] and 3.25 to 9.15 µM in assay [2].

For `COc1cc(-c2ccc(C(=O)N/N=C/c3ccncc3)c(C)n2)cc(OC)c1OC` [Vk, (E)-2-Methyl-N′-(pyridin-4-ylmethylene)-6-(3,4,5-trimethoxyphenyl)nicotinohydrazide], the IC50 in assay [1] was 17.5 ± 0.57 µM; in assay [2], 10.8 to 31.5 µM.

These data come from article PMC9044549 (RSC Advances, 2021).
